{"source": "patent US12291508B2", "about": "“Hydrazide containing nuclear transport modulators and uses thereof” (Karyopharm Therapeutics Inc., priority 2011, dated 2025)", "key": {"[1]": {"experiment": "Brain to Plasma (B:P) ratio in mice", "format": "in vivo", "details": "mouse, brain/plasma, 10 mg/kg po, 2 hours post-dose", "procedure": "Brain to Plasma (B:P) Ratio. […] Following collection, brain tissue was rinsed with cold saline, dried on filter paper, weighed and snap-frozen by placing on dry ice. All samples were stored frozen at approximately −80° C. until analysis. […] Plasma samples were treated with the identical method (except homogenization step) and the concentration of compound in each matrix was calculated based on generated standard curves."}, "[2]": {"target": "T1, CRM1-mediated nuclear export (Homo sapiens, UniProt O14980)", "T1 construct": "endogenous in cells; host or cells: U2OS-RevGFP cells", "T1 sequence (O14980 whole entry)": "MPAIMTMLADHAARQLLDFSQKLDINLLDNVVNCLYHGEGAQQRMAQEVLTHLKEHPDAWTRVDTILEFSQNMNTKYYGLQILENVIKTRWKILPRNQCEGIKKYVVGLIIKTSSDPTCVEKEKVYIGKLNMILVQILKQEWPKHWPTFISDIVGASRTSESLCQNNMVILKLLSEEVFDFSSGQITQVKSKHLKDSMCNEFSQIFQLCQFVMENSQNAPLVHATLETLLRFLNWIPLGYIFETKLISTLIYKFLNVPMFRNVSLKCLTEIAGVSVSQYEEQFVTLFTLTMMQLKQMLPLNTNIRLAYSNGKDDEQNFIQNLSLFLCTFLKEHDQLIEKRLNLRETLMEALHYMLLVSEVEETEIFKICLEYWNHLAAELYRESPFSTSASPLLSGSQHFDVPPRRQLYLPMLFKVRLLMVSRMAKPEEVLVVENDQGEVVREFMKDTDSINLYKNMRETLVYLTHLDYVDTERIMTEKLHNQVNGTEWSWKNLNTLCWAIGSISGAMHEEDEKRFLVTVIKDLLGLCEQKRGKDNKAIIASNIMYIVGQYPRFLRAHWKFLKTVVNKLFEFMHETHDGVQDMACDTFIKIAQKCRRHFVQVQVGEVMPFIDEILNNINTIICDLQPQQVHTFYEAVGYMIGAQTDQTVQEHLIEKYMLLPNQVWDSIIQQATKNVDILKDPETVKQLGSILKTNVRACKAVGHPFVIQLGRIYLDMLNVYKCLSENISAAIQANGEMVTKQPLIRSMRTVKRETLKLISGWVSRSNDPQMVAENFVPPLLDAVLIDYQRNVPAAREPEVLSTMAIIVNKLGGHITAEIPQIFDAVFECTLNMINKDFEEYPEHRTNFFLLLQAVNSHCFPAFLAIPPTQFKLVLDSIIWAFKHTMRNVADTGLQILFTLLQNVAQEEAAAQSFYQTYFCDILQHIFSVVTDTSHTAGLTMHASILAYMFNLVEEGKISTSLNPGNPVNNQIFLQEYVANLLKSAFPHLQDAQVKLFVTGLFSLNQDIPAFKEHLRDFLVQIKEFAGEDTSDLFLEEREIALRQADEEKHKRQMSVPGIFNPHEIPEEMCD", "experiment": "RevGFP assay, inhibition of nuclear export", "format": "cell-based", "details": "U2OS-RevGFP cells, about 1 hr incubation; read-out: Rev Export", "procedure": "The ability of exemplary compounds of the invention to inhibit CRM1-mediated nuclear export was assessed in a RevGFP assay. Rev is a protein from human immunodeficiency virus type 1 (HIV-1) and contains a nuclear export signal (NES) in its C-terminal domain and a nuclear localization signal (NLS) in its N-terminal domain. Nuclear export of Rev protein is dependent on the classical NES/CRM1 pathway (Neville et al. 1997).\nIn this assay, U2OS-RevGFP cells were seeded onto clear-bottomed, black, 384-well plates the day before the experiment. Compounds were serially diluted 1:2 in DMEM, starting from 40 μM in a separate, 384-well plate, and then transferred onto the cells. The cells were incubated with compound for about 1 hr before fixation with 3.7% formaldehyde and nuclei staining with Hoechst 33258. The amount of GFP in cell nuclei was measured and the IC50 of each compound was determined (Kau et al. 2003)."}, "[3]": {"tested_on": "MM.1S multiple myeloma cell line", "experiment": "CellTiter 96 AQueous One Solution cell proliferation assay, MM.1S", "format": "cell-based", "details": "Homo sapiens, MM1.S, 72 h of treatment, read-out: Cytotoxicity Assay", "text": "The CellTiter 96® AQueous One Solution cell proliferation assay (Promega) was used on MM.1S multiple myeloma cell line to study the cytotoxic and cytostatic properties of the compounds. The assay is based on the cleavage of the tetrazolium salt, MTS, in the presence of an electron-coupling reagent PES (phenazine ethosulfate). The MTS tetrazolium compound is bioreduced by cells into a colored formazan product that is soluble in tissue culture medium. This conversion is presumably accomplished by NADPH or NADH produced by dehydrogenase enzymes in metabolically active cells. Assays are performed by adding a small amount of the CellTiter 96® AQueous One solution reagent directly to culture wells, incubating for 1-4 hours and then recording the absorbance at 490 nm with a 96-well plate reader.\nThe cells were seeded at 5×10^3 to 1.5×10^4 cells in each well of a 96-well plate in 100 μL of fresh culture medium and adherent cells were allowed to attach overnight. The stock solutions of the compounds were diluted in cell culture medium to obtain eight concentrations of each drug, ranging from 1 nM to 30 μM and DMSO at less than 1% v/v was used as a negative control. The resulting drug solutions were transferred onto the cells. After 72 h of treatment, 20 μl of CellTiter 96® AQueous reagent was added into each well of the 96-well assay plates and the plate was incubated at 37° C. for 1-4 hours in a humidified, 5% CO2 atmosphere. Then the absorbance of each well was recorded at 490 nm using a 96-well plate reader. In most cases, the assay was performed in triplicate and the results were presented as half maximal inhibitory concentration (IC50). Optical density versus compound concentration was plotted and analyzed using non-linear regression equations (IDBS XLfit) and the IC50 for each compound was calculated."}, "[4]": {"experiment": "Pharmacokinetic (PK) assay, plasma AUC in mice", "format": "in vivo", "details": "mouse, plasma, 10 mg/kg po", "procedure": "AUC. Blood was collected from mice (N=3) to contribute to the total of 10 time points (pre-dose, 5 min, 15 min, 30 min, 1 hour, 2 hours, 4 hours, 8 hours, 12 hours and 24 hours post dose). Mice were bled on a rotating basis, each mouse contributing 3 time points to the blood collection. At the designated time points, animals were anaesthetized under isoflurane, and approximately 110 μL of blood per time point was collected via retro-orbital puncture into pre-cooled K2EDTA (anti-coagulant) tubes. Blood samples were put on wet ice and centrifuged (2000 g, 5 min at 4° C.) to obtain plasma within 30 minutes of sample collection. All samples were stored frozen at approximately −80° C. until analysis. Prior to analysis, samples were mixed with internal standard (dexamethasone) in acetonitrile, vortexed, centrifuged, and supernatant was injected for analysis. Concentration of compounds in plasma was determined using LC-MS-MS instrumentation (API 4000, Triple Quadruple with electrospray ionization; Acuity Ultra Performance Liquid Chromatography column C18, with MeOH and formic acid as organic solvents). AUC values were calculated using WinNonlin Professional 6.2 software package, non-compartmental pharmacokinetic model NCA200."}}, "data": [{"smiles": "O=C(/C=C\\n1cnc(-c2cc(C(F)(F)F)cc(C(F)(F)F)c2)n1)NNc1cc(Cl)ncn1", "note": "[Compound I-12, (Z)-3-(3-(3,5-bis(trifluoromethyl)phenyl)-1H-1,2,4-triazol-1-yl)-N′-(6-chloropyrimidin-4-yl)acrylohydrazide]", "values": [{"measurement": "Kp at 2 h", "setting": "[1]", "result": 0.13}, {"measurement": "IC50", "setting": "[2]", "result": "≤ 1000", "unit": "nM"}, {"measurement": "IC50", "setting": "[3]", "result": "≤ 1000", "unit": "nM"}, {"measurement": "AUC(0-inf)", "setting": "[4]", "result": 24900, "unit": "ng·h/mL"}]}]}
